# Counter-ions that a name gives are not always drawn.
# Target: T1, σ1-receptor (Cavia porcellus, UniProt Q60492)
# T1 construct: Guinea pig brains were homogenized in 10 vols; (w/v) of Tris-HCl 50 mM 0.32 M sucrose, pH 7.4; from tissue; host or cells: guinea pig brain membranes
# Assay: binding assay for the σ1-receptor, [3H]-(+)-pentazocine, brain membranes
# Conditions: guinea pig brain membranes; radioligand [3H]-(+)-pentazocine 5.0 nM; 150 min at 37° C.; nonspecific binding with 1 μM haloperidol
# Protocol: Guinea pig brains were homogenized in 10 vols. (w/v) of Tris-HCl 50 mM 0.32 M sucrose, pH 7.4, with a Kinematica Polytron PT 3000 at 15000 r.p.m. for 30 s. The homogenate was centrifuged at 1000 g for 10 min at 4° C. and the supernatants collected and centrifuged again at 48000 g for 15 min at 4° C. The pellet was resuspended in 10 volumes of Tris-HCl buffer (50 mM, pH 7.4), incubated at 37° C. for 30 min, and centrifuged at 48000 g for 20 min at 4° C. Following this, the pellet was re-suspended in fresh Tris-HCl buffer (50 mM, pH 7.4) and stored on ice until use.
# The radioligand used was [^3H]-(+)-pentazocine at 5.0 nM and the final volume was 200 μl. The incubation was initiated with the addition of 100 μl of membrane at a final tissue concentration of approximately 5 mg tissue net weight/mL and the incubation time was 150 m. at 37° C. After incubation, the membranes were collected onto pretreated glass fiber filterplate (MultiScreen-FC, Millipore), with polyethylenimine 0.1%. The filters were washed two times with 200 μl of washing buffer (50 mM Tris Cl, pH=7.4) and then 25 μl of Ecoscint H liquid scintillation cocktail were added. […] Nonspecific binding was determined with 1 μM haloperidol.
# T1 sequence (Q60492 whole entry): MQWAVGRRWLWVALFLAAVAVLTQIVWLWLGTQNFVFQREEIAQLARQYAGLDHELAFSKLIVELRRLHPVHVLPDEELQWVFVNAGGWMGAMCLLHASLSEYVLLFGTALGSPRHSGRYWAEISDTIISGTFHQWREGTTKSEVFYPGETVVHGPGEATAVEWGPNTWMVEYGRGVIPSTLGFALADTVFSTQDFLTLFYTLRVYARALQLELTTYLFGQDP
smiles,measurement,value
"NCCCOc1ccc2c(c1)[C@H]1OCCC[C@H]1[C@@H](C1CCCCC1)N2 (racemic) [Example 112, 3-((4aSR*,5RS*,10bSR*)-5-cyclohexyl-3,4,4a,5,6,10b-hexahydro-2H-pyrano[3,2-c]quinolin-9-yloxy)propan-1-amine hydrochloride]",Ki,134 nM
"CC(C)CCOc1ccc2c(c1)[C@H]1OCCC[C@H]1[C@@H](C1CCOCC1)N2 [Example 114, (4aS,5R,10bS)-9-(isopentyloxy)-5-(tetrahydro-2H-pyran-4-yl)-3,4,4a,5,6,10b-hexahydro-2H-pyrano[3,2-c]quinoline]",Ki,30 nM

# Source: patent publication US9408842B2, “Substituted pyrano and furanoquinolines, their preparation and use as medicaments” (LABORATORIOS DEL DR. ESTEVE S.A., priority 2012, dated 2016)
